Measurements published in patent publication US8232407B2, “Nitrogenous heterocyclic compounds with insecticidal activity, and the preparation and use thereof” (East China University of Science and Technology, priority 2008, dated 2012).

Key:
Assay type in all cases: in vivo
Aphis craccivoral = test: Insecticidal activities to aphids, immersion method; conditions: for Aphis craccivoral Mortality (%) 500 ppm: in vivo
Procedure, shortened: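 Immersion assay: compound diluted from 10 g/L DMF stock to 500 ppm in 0.2 mL/L Triton X-100, sprout-feeding wingless adults dipped 5 s. Kept at 23° C, three repeats; 24 h mortality calculated relative to surviving Triton-treated controls.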

Nilaparvata lugens = test: Insecticidal activities to plant hopper, spraying method; conditions: for Nilaparvata lugens Mortality (%) 500 ppm: in vivo
Procedure, shortened: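 Spray test: acetone solutions of 500 down to 0.79 ppm, 2 ml per tumbler holding 10 planthoppers introduced 6 h earlier, triplicate, aqueous acetone as control. Mortality at 24 h calculated from survivors relative to control.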

[1] = tested on: Pseudaletia separate Walker; test: Insecticidal activities to armyworm, leaf dipping and feeding
Protocol: (§1) Mortality (%)=(the number of the survival aphis in control group−the number of the survival aphis in the treatment group)/the number of the survival aphis in control group×100%
(3): Insecticidal Activities to Armyworm
Armyworm (Pseudaletia separate Walker) was tested by the way of leaf dipping and feeding. The test compound was exactly formulated with acetone into solutions having concentrations of 500, 250, 100, 50, 25, 12.5, 6.25, 3.13 and 1.57 ppm, respectively. Aqueous acetone solution was used as control. Fresh maize leaves were immersed in the solution for 3 seconds, dried at room temperature, and fed to the tested insects. Each treatment was tested with 10 insects and repeated for 3 tumblers (3 times). The number of killed insects was counted after 24 hours to calculate the mortality according to the above mentioned formula.

Plutella xylostella = test: Insecticidal activities to diamondback moth, feeding dipped leaves; conditions: for Plutella xylostella Mortality (%) 500 ppm: in vivo
Protocol: as §1
(4): Insecticidal Activities to Diamondback Moth
Diamondback moth (Plutella xylostella) was tested by the way of feeding dippedleaves. Fresh cabbage leaves were immersed in above mentioned solution for 3 seconds, dried at room temperature, and fed to the tested insects. Each treatment was tested with 10 insects and repeated for 3 tumblers (3 times), while water was used as control. The number of killed insects was counted after 24 hours to calculate the mortality according to the above mentioned formula.

SMILES	Aphis craccivoral Mortality (%) 500 ppm (Aphis craccivoral)	Nilaparvata lugens Mortality (%) 500 ppm (Nilaparvata lugens)	Pseudaletia separate Walker Mortality (%) 500 ppm ([1]; in vivo)	Plutella xylostella Mortality (%) 500 ppm (Plutella xylostella)	mortality at 500 ppm (Aphis craccivoral; Aphis, 500 ppm, immersion method, read-out: Aphis craccivoral Mortality (%) 500 ppm)	mortality at 500 ppm (Nilaparvata lugens; Nilaparvata lugens, 500 ppm, spraying method, counted after 24 hours, read-out: Nilaparvata lugens Mortality (%) 500 ppm)	Pseudaletia separate Walker Mortality (%) 500 ppm ([1]; 500 ppm, leaf dipping and feeding, counted after 24 hours)	mortality at 500 ppm (Plutella xylostella; Plutella xylostella, 500 ppm, feeding dipped leaves, counted after 24 hours, read-out: Plutella xylostella Mortality (%) 500 ppm)
O=[N+]([O-])C(=Cc1cc(Br)c(Br)s1)C1=NCCN1Cc1ccc(Cl)nc1 [Compound 25]	100%	100%	100%	100%				
O=[N+]([O-])C(=Cc1sc(Br)cc1Br)C1=NCCN1Cc1ccc(Cl)nc1 [Compound 26]	100%	100%	100%	100%				
Cc1ccc(C=C(C2=NCCN2Cc2ccc(Cl)nc2)[N+](=O)[O-])s1 [Compound 27]	100%	100%	100%	100%				
Cc1csc(C=C(C2=NCCN2Cc2ccc(Cl)nc2)[N+](=O)[O-])c1 [Compound 28]	100%	100%	100%	100%				
CCc1ccc(C=C(C2=NCCN2Cc2ccc(Cl)nc2)[N+](=O)[O-])s1 [Compound 29]	100%	100%	100%	100%				
O=[N+]([O-])C(=Cc1ccc(CO)s1)C1=NCCN1Cc1ccc(Cl)nc1 [Compound 30]	100%	100%	100%	100%				
O=[N+]([O-])C(=Cc1ccc[nH]1)C1=NCCN1Cc1ccc(Cl)nc1 [Compound 31]	100%	100%	100%	100%				
Cn1cccc1C=C(C1=NCCN1Cc1ccc(Cl)nc1)[N+](=O)[O-] [Compound 32]	100%	100%	100%	100%				
O=[N+]([O-])C(=Cc1cnco1)C1=NCCN1Cc1ccc(Cl)nc1 [Compound 33]	100%	100%	100%	100%				
O=[N+]([O-])C(=Cc1cncs1)C1=NCCN1Cc1ccc(Cl)nc1 [Compound 34]	100%	100%	100%	100%				
O=[N+]([O-])C(=Cc1cnc(Cl)s1)C1=NCCN1Cc1ccc(Cl)nc1 [Compound 35]	100%	100%	100%	100%				
O=[N+]([O-])C(=Cc1cnc[nH]1)C1=NCCN1Cc1ccc(Cl)nc1 [Compound 36]	98%	89%	100%	100%				
O=[N+]([O-])C(=Cc1ccccn1)C1=NCCN1Cc1ccc(Cl)nc1 [Compound 37]	34%	56%	57%	50%				
O=[N+]([O-])C(=Cc1cccnc1)C1=NCCN1Cc1ccc(Cl)nc1 [Compound 38]	97%	100%	95%	87%				
O=[N+]([O-])C(=Cc1ccncc1)C1=NCCN1Cc1ccc(Cl)nc1 [Compound 39]	24%	35%	35%	21%				
O=[N+]([O-])C(=Cc1ccc(Cl)nc1)C1=NCCN1Cc1ccc(Cl)nc1 [Compound 40]	45%	44%	67%	56%				
O=[N+]([O-])C(=Cc1ccc(F)nc1)C1=NCCN1Cc1ccc(Cl)nc1 [Compound 41]	89%	87%	100%	100%				
Cc1ccc(C=C(C2=NCCN2Cc2ccc(Cl)nc2)[N+](=O)[O-])cn1 [Compound 42]	45%	36%	87%	90. %				
O=[N+]([O-])C(=Cc1cc2ccccc2[nH]1)C1=NCCN1Cc1ccc(Cl)nc1 [Compound 43]	76%	90%	95%	100%				
O=[N+]([O-])C(=Cc1ccccc1)C1=NCCN1Cc1ccc(Cl)nc1 [Compound 44]	67%	92%	97%	100%				
O=[N+]([O-])C(=Cc1ccccc1O)C1=NCCN1Cc1ccc(Cl)nc1 [Compound 45]	56%	76%	89%	23%				
O=[N+]([O-])/C(=C/c1ccco1)C1=NCCCN1Cc1ccc(Cl)nc1 [Compound 46, 1-((6-chloropyridin-3-yl)methyl)-2-(2-(furan-2-yl)-1-nitrovinyl)-1,4,5,6-tetrahydropyrimidine]					100%	100%	100%	100%
O=[N+]([O-])C(=Cc1ccoc1)C1=NCCCN1Cc1ccc(Cl)nc1 [Compound 47]	100%	100%	100%	100%				
O=[N+]([O-])C(=Cc1ccc([N+](=O)[O-])o1)C1=NCCCN1Cc1ccc(Cl)nc1 [Compound 48]	100%	100%	100%	100%				
O=[N+]([O-])C(=Cc1ccc(Cl)o1)C1=NCCCN1Cc1ccc(Cl)nc1 [Compound 49]	100%	100%	100%	100%				
O=[N+]([O-])C(=Cc1ccc(Br)o1)C1=NCCCN1Cc1ccc(Cl)nc1 [Compound 50]	100%	100%	100%	100%				
O=[N+]([O-])C(=Cc1cc(Cl)co1)C1=NCCCN1Cc1ccc(Cl)nc1 [Compound 51]	100%	100%	100%	100%				
